Paper PMC10376326, “Novel Acylselenourea Derivatives: Dual Molecules with Anticancer and Radical Scavenging Activity” (Antioxidants, 2023)
Entries after “also recorded” stand apart in the source; their conditions may differ. Like-named read-outs stand apart in the source and are kept apart here.

Columns and labels:
[1] = test system: non-malignant BEAS-2B lung cell line; experiment: MTT cell viability assay, BEAS-2B; assay type: cell-based; details: Homo sapiens, normal lung, 48 h
Experimental: Cell lines were purchased from the American Type Culture Collection (ATCC). Cell lines MDA-MB-231, HTB-54, DU-145, and BEAS-2B were cultured in RPMI 1640 medium (Gibco, Thermo Fisher Scientific, Gaithersburg, MD, USA) supplemented with 10% fetal bovine serum (FBS; Gibco), 100 units/mL penicillin, and […] streptomycin (Gibco). HT-29 cell line was grown in McCoy’s 5A (Gibco), 10% FBS, 100 units/mL penicillin, and 100 μg/mL streptomycin. Cells were maintained at 37 °C and 5% CO2. The culture medium was changed every three days.
The cell viability of each compound was measured by MTT colorimetric assay. Each compound was dissolved in DMSO at a concentration of 0.01 M. Each compound was tested at two different concentrations (10 and 50 µM) in MDA-MB-231 (breast), HTB-54 (lung), DU-145 (prostate), and HT-29 (colon) human cancer cell lines. Serial dilutions were prepared with supplemented culture medium. […] IC50 and selectivity indexes (SI) were determined.
Briefly, 1 × 10^4 tumor cells per well were grown in 96-well plates for 24 h. Then, these cells were incubated for 48 h with either DMSO (control) or a different concentration of each of the tested compounds. The cell viability was determined by adding 20 μL of MTT two hours and a half before the termination point. After this time, the culture medium was removed. The resulting formazan crystals were dissolved in 50 μL of DMSO, and the absorbance was measured at 570 nm. Results are expressed as % cell growth. The data were obtained from at least three independent experiments performed in quadruplicate.

[2] = test system: DU-145 (prostate) cancer cell line; experiment: MTT cell viability assay, DU-145; assay type: cell-based, human; details: Homo sapiens, DU-145, 48 h; for activity at 10 µM: read-out: Cell growth %, DU-145, 10 µM, 48 h, MTT; for activity at 50 µM: read-out: Cell growth %, DU-145, 50 µM, 48 h, MTT; for IC50: read-out: IC50 DU-145
How it was run: (§1)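 MDA-MB-231, HTB-54 and DU-145 grown in RPMI 1640, HT-29 in McCoy's 5A (10% FBS). Output is % cell growth; IC50 determined; ≥3 experiments in quadruplicate.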

[3] = test system: MDA-MB-231, HT-29, HTB-54 and DU-145 cancer cell lines; experiment: MTT cell viability assay, statements over the panel of cancer cell lines; assay type: cell-based, human; details: for IC50: Homo sapiens, span over HTB-54, MDA-MB-231 and DU-145; for cell growth: in at least three of the four cancer cell lines tested
How it was run: as §1

[4] = test system: MDA-MB-231 (breast) cancer cell line; experiment: MTT cell viability assay, MDA-MB-231; assay type: cell-based, human; details: Homo sapiens, MDA-MB-231, 48 h; for activity at 10 µM: read-out: Cell growth %, MDA-MB-231, 10 µM, 48 h, MTT; for activity at 50 µM: read-out: Cell growth %, MDA-MB-231, 50 µM, 48 h, MTT; for IC50: read-out: IC50 MDA-MB-231
How it was run: as §1

DU-145 cells [5] = experiment: Annexin V & Dead Cell apoptosis assay; assay type: cell-based, human; details: DU-145, 10 µM, 24 h
Experimental: Induction of apoptosis was assayed using Annexin V & Dead Cell assay kit and Caspase 3/7 assay kit (EMD Millipore, Darmstadt, Germany). DU-145 cells were seeded in 6-well plates at a density of 6 × 10^5 cells/well and treated either with DMSO (control) or 10 µM of compounds 1.I and 5.I and incubated for 24 h. At the end of treatment, cells were harvested and processed with appropriate staining according to the manufacturer’s protocol. For the Caspase 3/7 assay, cells were stained with 5 μL of Muse™ Caspase 3/7 working solution and incubated at 37 °C for 30 min. After incubation, […] of Muse™ Caspase 7-AAD working solution was added and the samples were incubated for another 5 min at room temperature in the dark. For Annexin V assay, cells were stained with 100 μL pf Muse™ Annexin V & Dead Cell Reagent and incubated for 20 min at room temperature in the dark prior to analysis. Samples were further analyzed on a Muse™ Cell Analyzer (Merck Millipore, Darmstadt, Germany) using Muse™ 1.4 software. Data were obtained from at least two independent experiments.

[6] = test system: HTB-54 (lung) cancer cell line; experiment: MTT cell viability assay, HTB-54; assay type: cell-based, human; details: for activity at 10 µM: read-out: Cell growth %, HTB-54, 10 µM, 48 h, MTT; for activity at 50 µM: read-out: Cell growth %, HTB-54, 50 µM, 48 h, MTT; for SI: IC50 (BEAS-2B)/IC50 (HTB-54)
DU-145 cells [7] = experiment: Protective effects against H2O2-induced oxidative stress in DU-145 cells (MTT); assay type: cell-based, human; details: for fold increase of cell survival: 0.0015 mg/mL, DU-145 treated with 300, 250 and 200 µM H2O2; for Increase-fold: increase-fold of cell survival
Experimental: Cells were treated with the selected compounds and then oxidative damage to DU-145 cells was induced using different concentrations of H2O2 (200, 250 and 300 µM), and cell viability was assessed by the MTT method. Briefly, 2.5 × 10^4 DU-145 cells per well were added in 96-well plates. After 24 h of incubation, DMSO, 1.I, 2.I, 5.I, 7.II, 10.II, and ascorbic acid were added to each well at two different concentrations (0.0015 mg/mL and 0.0003 mg/mL) and incubated for 1 h. After that, H2O2 was added at the concentrations of 200, 250, and 300 µM, and the cells were incubated for 12 h to induce cell damage. MTT assay was used to measure cell viability. For each treatment, the mean cell viability was calculated from three independent experiments. The DMSO-treated controls were assigned with a cell viability value of 100% (Vcontrol). The results are expressed as a cell growth inhibition % caused by H2O2 and the increased fold of cell survival, as follows: • Cells without compounds, only treated with H2O2: (2) % Cell growth inhibition=Acontrol - Asample/Acontrol × 100
• Cells treated with compounds and H2O2:
(3) % Cell growth inhibition=Asample (compound) - Asample (compound+H2O2)/Acontrol × 100
(4) Increase-fold of cell survival=% cell growth inhibition (H2O2)/% cell growth inhibition (compound+ H2O2)
The standard error of the mean (SEM) was calculated in at least three independent experiments performed in quadruplicates.

[8] = Homo sapiens, HTB-54, 48 h, read-out: IC50 HTB-54, Lung, MTT, 48 h
[9] = compound 0.0003 mg/mL, 200 µM H2O2, DU-145
[10] = compound 0.0003 mg/mL, 250 µM H2O2, DU-145
[11] = compound 0.0003 mg/mL, 300 µM H2O2, DU-145
[12] = compound 0.0015 mg/mL, 200 µM H2O2, DU-145
[13] = compound 0.0015 mg/mL, 250 µM H2O2, DU-145
[14] = compound 0.0015 mg/mL, 300 µM H2O2, DU-145

| Structure (SMILES) | IC50 [1] | activity at 10 µM [2] | activity at 50 µM [2] | IC50 [2] | IC50 [3] | cell growth [3] | activity at 10 µM [4] | activity at 50 µM [4] | IC50 [4] | increase of late/dead apoptotic cells with respect to the control (DU-145 cells [5]) | viable population reduced by (DU-145 cells [5]) | activity at 10 µM ([6]; Homo sapiens, HTB-54, 48 h) | activity at 50 µM ([6]; Homo sapiens, HTB-54, 48 h) | IC50 [6, 8] | SI [6] | fold increase of cell survival (DU-145 cells [7]) | Increase-fold (DU-145 cells [7]; [9]) | Increase-fold (DU-145 cells [7]; [10]) | Increase-fold (DU-145 cells [7]; [11]) | Increase-fold (DU-145 cells [7]; [12]) | further results |
| --- | --- | --- | --- | --- | --- | --- | --- | --- | --- | --- | --- | --- | --- | --- | --- | --- | --- | --- | --- | --- | --- |
| CCCNC(=[Se])NC(=O)c1ccco1 [Compound 1.I, N-(propylcarbamoselenoyl)furan-2-carboxamide] | > 100 µM | 44.9 ± 4.8% | 48.7 ± 3.1% | 9.5 ± 2.5 µM | 7.8 to 15.5 µM | below 55% | 46.7 ± 5.6% | 38 ± 7.8% | 8.8 ± 4.8 µM | about 25% | 37% | 47.1 ± 14.8% | 31.6 ± 8.2% | < 10 µM | >12.7 | doubled cell viability; also recorded: greater two-fold increase of cell survival | 2.0 ± 0.0 | 2.0 ± 0.7 | 1.8 ± 0.4 | 2.3 ± 0.7 | Increase-fold (DU-145 cells [7]; [13]): 2.7 ± 0.4; Increase-fold (DU-145 cells [7]; [14]): 2.3 ± 0.3 |
| CCCNC(=[Se])NC(=O)c1ccccc1 [Compound 5.I, N-(propylcarbamoselenoyl)benzamide] | > 100 µM | 42.4 ± 4.9% | 47.9 ± 3.9% | 11.5 ± 3.4 µM | 7.8 to 15.5 µM | below 55% | 45 ± 12.5% | 21.3 ± 11.2% | 15.5 ± 6.3 µM | about 25% | 37% | 36.8 ± 8.6% | 27.5 ± 6.5% | < 10 µM | >11.9 | doubled cell viability; also recorded: greater two-fold increase of cell survival | 1.9 ± 0.3 | 1.9 ± 0.4 | 1.7 ± 0.4 | 3.1 ± 0.5 | IC50 ([6]; read-out: IC50 HTB-54, Lung, MTT, 48 h): 8.4 ± 3.9 µM; Increase-fold (DU-145 cells [7]; [13]): 2.7 ± 0.3; Increase-fold (DU-145 cells [7]; [14]): 2.4 ± 0.4 |
